The target in this test is T1, N1RIS1_FUSC4 (CYP51 of TR4; Eburicol 14-alpha-demethylase) (Fusarium odoratissimum, UniProt N1RIS1).
T1 construct: gene FOC4_g10015154
T1 sequence (N1RIS1 1-527): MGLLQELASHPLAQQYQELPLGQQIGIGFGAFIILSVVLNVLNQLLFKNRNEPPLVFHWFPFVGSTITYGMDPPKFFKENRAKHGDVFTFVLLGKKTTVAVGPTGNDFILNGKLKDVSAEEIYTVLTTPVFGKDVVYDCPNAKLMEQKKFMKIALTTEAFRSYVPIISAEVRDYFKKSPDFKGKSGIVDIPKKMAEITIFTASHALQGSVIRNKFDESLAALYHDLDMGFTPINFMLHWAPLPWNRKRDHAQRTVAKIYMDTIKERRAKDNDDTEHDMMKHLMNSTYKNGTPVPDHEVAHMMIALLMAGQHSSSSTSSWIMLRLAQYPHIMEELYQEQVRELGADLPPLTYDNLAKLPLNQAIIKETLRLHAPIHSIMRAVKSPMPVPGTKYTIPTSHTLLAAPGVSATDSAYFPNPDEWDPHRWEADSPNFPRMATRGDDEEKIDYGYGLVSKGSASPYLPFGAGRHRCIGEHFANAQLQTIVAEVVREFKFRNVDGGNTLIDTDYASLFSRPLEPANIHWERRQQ
Kind of test: SPR (Biacore T200, protein amine-coupled on CM5 chip, […] kinetic fit). The format is binding. The following applies: 25 °C; 3.125-50 μM analyte.

The Kd is the free concentration of one partner at which half of the binding sites on the other are occupied at equilibrium, for simple one-to-one binding. A lower Kd goes with tighter binding. The molecule `O[C@](Cc1ccccc1Cl)(Cn1[nH]cnc1=S)C1(Cl)CC1` [R-Pro] gave a Kd of 0.342 nM.

(Values after paper PMC8875126, “Mechanistic Insights into Stereospecific Antifungal Activity of Chiral Fungicide Prothioconazole against Fusarium oxysporum F. sp. cubense” (International Journal of Molecular Sciences, 2022).)
